Results: ChEMBL document CHEMBL4342470, “Detection of Active Granzyme A in NK92 Cells with Fluorescent Activity-Based Probe” (J Med Chem, 2020)
Active and inactive are the calls of the source. The rule behind the calls is not given here. Non-standard residues stand in square brackets, D forms with d. Residues, ends and D or L forms follow the SMILES beside them. ξ: configuration not given here. *: point of attachment. Phe(4-guanidino) = N=C(N)Nc1ccc(C[C@H](N)C(=O)O)cc1; Oic(3aξ,7aξ) = O=C(O)[C@@H]1CC2CCCCC2N1; Phe(4-F) = N[C@@H](Cc1ccc(F)cc1)C(=O)O; ACC = NC(=O)Cc1cc(=O)oc2cc(N*)ccc12; Met(O) = CS(=O)CC[C@H](N)C(=O)O; Tic = O=C(O)[C@@H]1Cc2ccccc2CN1; X1 = Clc1cccc(Cl)c1C*

Tests used:
[1] = molecular target: T1, Granzyme A (Homo sapiens) (UniProt P12544); assay: Substrate activity at Granzyme A (unknown origin) expressed in Pichia pastoris incubated for 30 mins by fluorescence based assay
T1 sequence (whole entry): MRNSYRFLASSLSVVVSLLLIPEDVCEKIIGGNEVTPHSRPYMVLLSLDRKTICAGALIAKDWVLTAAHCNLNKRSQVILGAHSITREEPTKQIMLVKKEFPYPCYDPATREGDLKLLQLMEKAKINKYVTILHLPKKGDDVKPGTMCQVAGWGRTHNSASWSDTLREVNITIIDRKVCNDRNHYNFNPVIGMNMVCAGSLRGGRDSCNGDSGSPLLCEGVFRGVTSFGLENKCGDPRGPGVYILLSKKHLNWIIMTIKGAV

[2] = molecular target: Granzyme B (Homo sapiens) (UniProt P10144); assay: Substrate activity at Granzyme B (unknown origin) expressed in Pichia pastoris assessed as compound hydrolysis at 200 uM incubated for 30 mins by fluorescence based assay relative to control
Granzyme B (Homo sapiens), sequence (P10144 whole entry): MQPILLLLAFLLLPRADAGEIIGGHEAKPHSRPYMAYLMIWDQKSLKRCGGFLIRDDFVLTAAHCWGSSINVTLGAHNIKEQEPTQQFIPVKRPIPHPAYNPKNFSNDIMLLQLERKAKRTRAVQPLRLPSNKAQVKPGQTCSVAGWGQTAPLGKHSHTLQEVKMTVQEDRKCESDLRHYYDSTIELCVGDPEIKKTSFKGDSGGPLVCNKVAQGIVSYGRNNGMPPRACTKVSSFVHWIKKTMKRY

[3] = molecular target: T2, Granzyme K (Homo sapiens) (UniProt P49863); assay: Substrate activity at Granzyme K (unknown origin) expressed in Pichia pastoris assessed as compound hydrolysis at 200 uM incubated for 30 mins by fluorescence based assay relative to control; design: scale not given: the % may be the effect or the level left
T2 sequence (whole entry): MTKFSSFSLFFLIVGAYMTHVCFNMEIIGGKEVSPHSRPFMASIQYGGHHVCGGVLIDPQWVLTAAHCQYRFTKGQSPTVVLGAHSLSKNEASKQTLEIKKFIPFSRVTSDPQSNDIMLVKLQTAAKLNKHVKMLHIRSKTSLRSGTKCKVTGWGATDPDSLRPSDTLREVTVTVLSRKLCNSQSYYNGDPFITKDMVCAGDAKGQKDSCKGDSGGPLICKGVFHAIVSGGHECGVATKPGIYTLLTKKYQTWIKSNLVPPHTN

Activity [1]	Activity [2]	Activity [3] [%]	SMILES
Active			CC(=O)N[C@@H](CC[S+](C)[O-])C(=O)NCC(=O)N[C@@H](Cc1ccc(OCc2c(Cl)cccc2Cl)cc1)C(=O)N[C@@H](Cc1ccc(NC(=N)N)cc1)C(=O)Nc1ccc2c(CC(N)=O)cc(=O)oc2c1 (stereo not given in full) (Ac-[Met(O)]GY(X1)[Phe(4-guanidino)]-{ACC})
Active			CC(=O)N[C@@H](CC[S+](C)[O-])C(=O)NCC(=O)N[C@@H](Cc1ccc(F)cc1)C(=O)N[C@@H](CCCNC(=N)N)C(=O)Nc1ccc2c(CC(N)=O)cc(=O)oc2c1 (stereo partly drawn) (Ac-[Met(O)]G[Phe(4-F)]R-{ACC})
Active			CC(=O)N[C@@H](CC[S+](C)[O-])C(=O)NCC(=O)N[C@@H](Cc1ccc(F)cc1)C(=O)N[C@@H](Cc1ccc(NC(=N)N)cc1)C(=O)Nc1ccc2c(CC(N)=O)cc(=O)oc2c1 (stereo not given in full) (Ac-[Met(O)]G[Phe(4-F)][Phe(4-guanidino)]-{ACC})

Second part, the compound before the results:

SMILES	Activity [1]	Activity [2]	Activity [3] [%]
CC[C@H](C)[C@H](NC(C)=O)C(=O)NCC(=O)N1C2CCCCC2C[C@H]1C(=O)N[C@@H](CCCNC(=N)N)C(=O)Nc1ccc2c(CC(N)=O)cc(=O)oc2c1 (stereo partly drawn) (Ac-IG[Oic(3aξ,7aξ)]R-{ACC})	Active	Active	
CC(=O)N1Cc2ccccc2C[C@H]1C(=O)NC(CCc1nc2ccccc2s1)C(=O)N1C2CCCCC2C[C@H]1C(=O)N[C@@H](CCCNC(=N)N)C(=O)Nc1ccc2c(CC(N)=O)cc(=O)oc2c1 (stereo not given in full)	Active		
CC[C@H](C)[C@H](NC(C)=O)C(=O)NCC(=O)N1C2CCCCC2C[C@H]1C(=O)N[C@@H](Cc1ccc(NC(=N)N)cc1)C(=O)Nc1ccc2c(CC(N)=O)cc(=O)oc2c1 (stereo not given in full) (Ac-IG[Oic(3aξ,7aξ)][Phe(4-guanidino)]-{ACC})	Active		
CC(=O)N1Cc2ccccc2C[C@H]1C(=O)NCC(=O)N1C2CCCCC2C[C@H]1C(=O)N[C@@H](Cc1ccc(NC(=N)N)cc1)C(=O)Nc1ccc2c(CC(N)=O)cc(=O)oc2c1 (stereo not given in full) (Ac-[Tic]G[Oic(3aξ,7aξ)][Phe(4-guanidino)]-{ACC})	Active		
CC(=O)N1Cc2ccccc2C[C@H]1C(=O)NCC(=O)N1C2CCCCC2C[C@H]1C(=O)N[C@@H](CCCNC(=N)N)C(=O)Nc1ccc2c(CC(N)=O)cc(=O)oc2c1 (stereo partly drawn) (Ac-[Tic]G[Oic(3aξ,7aξ)]R-{ACC})		inactive	20
